# Reference: patent US20210386781A1, “A GROUP OF CHIMERIC ANTIGEN RECEPTORS (CARS)” (ST. ANNA KINDERKREBSFORSCHUNG, priority 2018, published 2021)
# Key:
# [1] = system: A431-fLuc; test: Luciferase-based cytotoxicity assay, stably transduced CAR T cells against A431-fLuc, Example 4; type: cell-based, human; conditions: T cells without CAR expression; 10 nM
# Protocol: Luciferase-expressing tumour cells were co-cultured with CAR T cells at an E:T cell ratio of 2:1 with 10,000 target cells/well in white round-bottom 96 well plates for 4 hours at 37° C. in cytotoxicity assay medium, consisting of phenol-free RPMI, 10% FCS, 1% L-Glutamine and 1% penicillin-streptomycin. Finally, remaining living cells were quantified by determination of the residual luciferase activity of the co-culture. After equilibration to room temperature for 10 minutes, luciferin was added to the cell suspension (150 μg/mL final concentration) and luciferase activity was measured 20 minutes later using the ENSPIRE Multimode plate reader. The percentage of specific lysis was determined with the following formula:
# % specific lysis=100−((RLU from well with effector and target cell co-culture)/(RLU from well with target cells only)×100)).
# Dimerization of transgenes was induced prior to co-cultivation experiments. Primary T cells were diluted to the final cell concentration in the respective cell culture medium. The homodimerization agent AP20187 was diluted in cell culture medium and was added at 10 nM final concentration. Addition of the respective vehicle control DMSO at the same concentration served as control. Cells were incubated at 37° C. for 30 minutes to ensure efficient dimerization of transgenes and subsequently used for in vitro experiments.
# [2] = system: Jurkat T cells expressing tHER2; test: Luciferase-based cytotoxicity assay, affibody-based CAR T cells against tHER2-expressing Jurkat T cells, Example 8; type: cell-based, human; conditions: binder fused to 8ser-BB-FKBP(36V)-3z; with or without 10 nM AP20187; E:T 2:1, 4 hours
# Protocol: Luciferase-expressing tumour cells were co-cultured with CAR T cells at an E:T cell ratio of 2:1 with 10,000 target cells/well in white round-bottom 96 well plates for 4 hours at 37° C. in cytotoxicity assay medium, consisting of phenol-free RPMI, 10% FCS, 1% L-Glutamine and 1% penicillin-streptomycin. Finally, remaining living cells were quantified by determination of the residual luciferase activity of the co-culture. After equilibration to room temperature for 10 minutes, luciferin was added to the cell suspension (150 μg/mL final concentration) and luciferase activity was measured 20 minutes later using the ENSPIRE Multimode plate reader. The percentage of specific lysis was calculated with the following formula:
# Dimerization of transgenes was induced prior to co-cultivation experiments. Primary T cells were diluted to the final cell concentration in the respective cell culture medium. The homodimerization agent AP20187 was diluted in cell culture medium and was added at 10 nM final concentration. Addition of the vehicle control DMSO at the same concentration served as control. Cells were incubated at 37° C. for 30 minutes to ensure efficient dimerization of transgenes and subsequently used for in vitro experiments.
Molecule,effect of the dimerization agent itself on lysis of target cells [1],capacity to trigger cytotoxicity in presence or absence of AP20187 [2]
"CC[C@H](C(=O)N1CCCC[C@H]1C(=O)O[C@H](CCc1ccc(OC)c(OC)c1)c1cccc(OCC(=O)NCC(CNC(=O)COc2cccc([C@@H](CCc3ccc(OC)c(OC)c3)OC(=O)[C@@H]3CCCCN3C(=O)[C@@H](CC)c3cc(OC)c(OC)c(OC)c3)c2)CN(C)C)c1)c1cc(OC)c(OC)c(OC)c1 [AP20187, reference compound]",no effects on the lysis of target cells,–
zHER2-WT: high-affinity anti-HER2 affibody with point mutations N23A and S33K,–,efficient target cell lysis independent of presence of AP20187
